pIC50: −log10 of the molar value.
How the values were obtained:
C2C12 cells = assay: Toxicity (percent of cell death), C2C12 cells; format: cell-based; conditions: 20 μM
Description: EphA4 kinase inhibition is assessed by both an enzymatic assay measuring the phosphorylation of a purified recombinant EphA4 kinase and a cell-based assay using the activation of pGas-Luciferase system in EphA4-transfected CHO-K1 cells. The functional effects of EphA4 RTK inhibitors on cell motility and proliferation is evaluated by the scratch wound assay. The effect of EphA4 RTK inhibitors is also directly measured on the cell confluence. The counterscreen assays (cell counterscreen, Src, Jak2 and P38α kinase) identified other potential inhibitory activities of compounds unrelated to EphA4 kinase. The toxicity is measured by the percent of cell death in the different cell assays. Values represent IC50 and IP in μM calculated from the dose-response curves. Values in parentheses give the maximum percent inhibition.

[1] = molecular target: T1, Recombinant EphA4 kinase His6-TEV-EphA4 (aa. 615-911) (Homo sapiens, UniProt P54764); assay: EphA4 kinase enzymatic assay (TR-FRET); format: biochemical; conditions: for pIC50: 25 μM ATP, TR-FRET; for inhibition at up to 100 µM: maximum percent inhibition, titration starting at 100 μM, read-out: EphA4 Kinase max inhibition in %
T1 construct: His6-TEV-EphA4 (36 KD) (aa. 615-911); His6 (N); TEV cleavage site (N); made in house; host or cells: Sf9 (baculovirus)
T1 sequence (P54764 615-911): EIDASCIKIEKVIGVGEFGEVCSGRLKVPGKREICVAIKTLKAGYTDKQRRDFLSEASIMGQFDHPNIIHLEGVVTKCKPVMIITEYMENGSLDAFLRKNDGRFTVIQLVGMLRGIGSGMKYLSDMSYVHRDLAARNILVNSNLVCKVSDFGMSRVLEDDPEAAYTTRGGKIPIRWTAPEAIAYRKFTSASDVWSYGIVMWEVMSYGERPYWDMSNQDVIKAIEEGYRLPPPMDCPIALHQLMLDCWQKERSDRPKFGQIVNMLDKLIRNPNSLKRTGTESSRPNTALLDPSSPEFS
Description: Recombinant EphA4 kinase His6-TEV-EphA4 (36 KD) (aa. 615-911) was expressed in Sf9 using baculovirus expression system. Hi-tagged protein was purified by high performance liquid chromatography in two step, using a His Trap HP column and a heparin column. The potency of compounds to inhibit EphA4 kinase phosphorylation was measured by an enzymatic assay based on time resolved fluorescence energy transfer assay format (TR-FRET), using Eu-W1024 anti-pTyr antibody (Perkin Elmer, USA) as a donor and SureLight APC (Perkin Elmer, USA) as an acceptor.
Biotinylated Poly(Glu Tyr) peptide (50 nM) was incubated in 384-well with 25 μM ATP (Sigma) and 10 ng EphA4 kinase in NEBuffer (New England Biolabs) for 60 minutes at rt. The reaction was stopped by 15 mM of EDTA solution for 10 minutes at rt. The detection mixture containing 0.5 nM Eu-W1024 anti-pTyr antibody (Perkin Elmer, USA) and 50 nM SureLight APC (Perkin Elmer, USA) was added to the wells and the plate was incubated for 30 min at rt, while protected from light. Energy transfer signal was measured using a Victor 2V (excitation filter 340, emission filter 615 and 665, delay time 50 μs). Results were expressed as ratios of the absorbencies 665/615.
Compounds were titrated in duplicate at 11 points concentration starting at 100 μM with a 3 fold increment. Compounds were diluted in DMSO. […] Percentage inhibition for each compound was then calculated based on the value of the 100% inhibition. Concentration-response curves were represented and the concentrations for 50% inhibition (IC50) were calculated.

CHO-K1 cells = assay: Cell viability (Cell Glo Assay) on parallel plates of the EphA4 cell assay; format: cell-based, Chinese Hamster; conditions: at 100 μM
Description: Transfection and Luciferase Assay: CHO-K1 cells were plated in T-175 cell culture bottle in DMEM medium supplemented with 10% fetal bovine serum, 1 mM sodium pyruvate, 2 mM L-glutamine and 1.5 g/L sodium bicarbonate. When cell reached 70-80% confluence, transfections were performed in T-175 culture flasks, using Lipofectamine 2000™ transfection reagent (Invitrogen) according to the manufacturer's directions. For the luciferase assay CHO-K1 cells were co-transfected the next day with 50 μg of pGAS-Luc, 70 μg of EphA4, and 5 μg of empty vector pRL-CMV, which encoded the Renilla luciferase, and was included in the transfection mix for normalization. […] Cells were lysed the next day using the Reporter Lysis Buffer (Promega), and the luciferase activity was measured using the Dual Luciferase Assay (Promega) following the manufacturer's directions. The Firefly and Renilla luminescences are read consecutively on a Top-Count (Perkin-Elmer). Results are expressed as a ratio of the two luminescence: Firefly Luciferase/Renilla Luciferase. Cell viability was assessed on parallel plates using the Cell Glo Assay (Promega) following the manufacturer's directions. Results are expressed as percent of cell death in comparison with vehicle-treated wells.

[2] = system: Jak2/Stat3 activation with Interferon Gamma in MCF-7 cells; assay: Cell-based counterscreen assay (IFN-γ activated Jak2/Stat3, pGAS-Luc in MCF-7 cells); conditions: for pIC50: Homo sapiens, MCF7, inflexion point, read-out: Cell Counter Screen Assay IP
From the text: EphA4 cell-based assay was based on the signaling pathway of EphA4, which involves activation of the tyrosine kinase Jak2 and the transcriptional activator Stat3. However, pharmacological agents could also interfere downstream of EphA4 signaling and particularly on Jak2 activity. To counterscreen this potential effect unrelated to EphA4 activity, a new assay was designed based on direct activation of the tyrosine kinase Jak2 and the transcriptional activator Stat3 with Interferon Gamma (IFN-γ).
MCF-7 cells were maintained in MEM growth media, supplemented with 10% fetal bovine serum, 2 mM L-glutamine, 1.5 g/L sodium bicarbonate, 0.1 mM non-essential amino acids, 1 mM sodium pyruvate, and 0.01 mg/ml bovine insulin. For the luciferase assay MCF-7 cells were co-transfected the next day with 50 μg of pGAS-Luc and 5 μg of empty vector pRL-CMV, which encoded the Renilla luciferase, and was included in the transfection mix for normalization. Six hours after transfection the cells were trypsinized and plated at 4.105 cells/ml into 96 well Black/Clear Poly-D-Lysine coated plates (Biocoat) that had been pre-spotted with compounds. IFN-γ (BD Pharmingen, USA) was then added to the wells. Cells were lysed the next day using the Reporter Lysis Buffer (Promega), and the luciferase activity was measured using the Dual Luciferase Assay (Promega) following the manufacturer's directions. The Firefly and Renilla luminescences are read consecutively on a Top-Count (Perkin-Elmer).
Results are expressed as a ratio of the two luminescence: Firefly Luciferase/Renilla Luciferase. Cell viability was assessed on parallel plates using the Cell Glo Assay (Promega) following the manufacturer's directions. Results are expressed as percent of cell death in comparison with vehicle-treated wells.
Compounds were titrated in duplicate at 10 points concentration starting at 100 μM with a 1.5 fold increment. Concentration-response curves were represented and the concentrations at the inflexion point (IP) were calculated. The maximum effect was given by the maximum percent inhibition calculated from the results of the control wells (containing only DMSO).

SMILES | Max Toxicity C2C12 in cells % of cell death (C2C12 cells) [%] | pIC50 [1] | inhibition at up to 100 µM [1] [%] | Max Toxicity Cell Assay % of cell death (CHO-K1 cells) [% at 100 μM] | Cell Counter Screen Assay max inhibition in % [2] [%] | pIC50 [2]
CC1CCc2c(-c3ccccc3Cl)nc3[nH]nc(N)c3c2C1 (stereo not drawn) [Example 63] | 3 | 5.68 | 99 | 68 | 82 | 4.70
Cc1ccccc1-c1nc2[nH]nc(N)c2c2c1CCC(C)(C)C2 [Example 67] | 10 | 5.82 | 100 | 76 | 81 | 4.89

— patent publication US20100113415A1, “EPHA4 RTK INHIBITORS FOR TREATMENT OF NEUROLOGICAL AND NEURODEGENERATIVE DISORDERS AND CANCER” (priority 2008, published 2010)
